Results reported in patent US7358276B2, “2-Oxo-1-pyrrolidine derivatives, processes for preparing them and their uses” (UCB, S.A., priority 2000, dated 2008).

Experiments:
[1] = target: T1, Levetiracetam Binding Site (LBS), rat cerebral cortex membranes (Rattus norvegicus, UniProt Q02563); experiment: LBS binding assay (competitive binding, [3H]-2-[4-(3-azidophenyl)-2-oxo-1-pyrrolidinyl]butanamide); details: 4° C., 120 min
T1 construct: The crude membrane pellet obtained is resuspended in 50 mmol/l Tris-HCl (pH 7.4); from tissue; host or cells: rat cerebral cortex crude membranes (male Sprague-Dawley)
T1 sequence (Q02563 whole entry): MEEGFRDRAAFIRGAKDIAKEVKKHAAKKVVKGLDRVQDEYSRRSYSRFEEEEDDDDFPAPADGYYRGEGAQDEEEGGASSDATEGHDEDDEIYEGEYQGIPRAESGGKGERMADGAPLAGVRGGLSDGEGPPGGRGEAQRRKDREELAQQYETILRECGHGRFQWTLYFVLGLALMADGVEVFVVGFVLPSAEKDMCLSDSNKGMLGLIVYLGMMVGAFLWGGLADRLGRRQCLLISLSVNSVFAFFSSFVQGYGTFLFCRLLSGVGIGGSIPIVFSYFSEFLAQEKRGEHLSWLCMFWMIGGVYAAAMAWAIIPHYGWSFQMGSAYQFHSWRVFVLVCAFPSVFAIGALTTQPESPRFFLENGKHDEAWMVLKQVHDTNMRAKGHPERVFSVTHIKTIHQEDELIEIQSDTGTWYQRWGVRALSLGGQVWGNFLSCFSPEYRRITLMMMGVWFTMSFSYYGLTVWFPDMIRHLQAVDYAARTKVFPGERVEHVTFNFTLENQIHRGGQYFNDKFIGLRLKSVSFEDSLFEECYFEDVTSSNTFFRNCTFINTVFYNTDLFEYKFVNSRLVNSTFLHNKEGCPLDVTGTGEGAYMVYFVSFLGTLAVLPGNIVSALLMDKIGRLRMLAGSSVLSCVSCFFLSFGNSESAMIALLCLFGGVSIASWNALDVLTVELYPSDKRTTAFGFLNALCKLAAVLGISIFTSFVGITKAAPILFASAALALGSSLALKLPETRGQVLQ

[2] = system: audiogenic seizures in sound-susceptible mice; experiment: Animal model of sound-susceptible mice (audiogenic seizures); assay type: in vivo; details: intraperitoneally 60 minutes before induction of audiogenic seizures; doses given in mol/kg
Text: The activity of the compounds of formula I, or their pharmaceutically acceptable salts, as anticonvulsants can be determined in the audiogenic seizures model. The objective of this test is to evaluate the anticonvulsant potential of a compound by means of audiogenic seizures induced in sound-susceptible mice, a genetic animal model with reflex seizures. In this model of primary generalised epilepsy, seizures are evoked without electrical or chemical stimulation and the seizure types are, at least in part, similar in their clinical phenomenology to seizures occurring in man (Löscher W. & Schmidt D., Epilepsy Res. (1998), 2, p. 145-181; Buchhalter J. R., Epilepsia (1993), 34, S31-S41). Results obtained with compounds of formula I are indicative of a strong pharmacological effect.
The objective of this test is to evaluate the anticonvulsant potency of a compound in sound-susceptible mice, a genetic animal model with reflex seizures. In this model of primary generalised epilepsy, seizures are evoked without electrical or chemical stimulation and the seizure types are, at least in part, similar in their clinical phenomenology to seizures occuring in man (Löscher W. & Schmidt D., Epilepsy Res. (1998), 2, 145-181; Buchhalter J. R., Epilepsia (1993), 34, S31-S41).
Male or female genetically sound-sensitive mice (14-28 g; N=10), derived from a DBA strain originally selected by Dr. Lehmann of the Laboratory of Acoustic Physiology (Paris) and bred in the UCB Pharma Sector husbandry unit since 1978, are used. The experimental design consisted of several groups, one group receiving the vehicle control and the other groups different doses of the test-compound. The compounds are administered intraperitoneally 60 minutes before the induction of audiogenic seizures.
For testing, the animals are placed in small cages, one mouse per cage, in a sound-attenuated chamber. After a period of orientation of 30 seconds, the acoustic stimulus (90 dB, 10-20 kHz) is delivered for 30 seconds via loudspeakers positioned above each cage. During this interval, the mice are observed and the presence of the 3 phases of the seizure activity namely wild running, clonic and tonic convulsions, is recorded. The proportion of mice protected against wild running, clonic and tonic convulsions, respectively, is calculated.
For active compounds, an ED50 value, i.e. the dose producing 50% protection relative to the control group, together with 95% confidence limits, was calculated using a Probit Analysis (SAS/STAT® Software, version 6.09, PROBIT procedure) of the proportions of protected mice for each of the 3 phases of the seizure activity.

Molecule | melting point [°C] | pKi (affinity for the levetiracetam binding site) [1] | ED50 (dose producing 50% protection against audiogenic seizures) [2]
CC[C@@H](C(N)=O)N1CC(CF)CC1=O (stereo partly drawn) | 87.1 |  | 
CC[C@H](C(N)=O)N1CC(c2cccs2)CC1=O (stereo partly drawn) | 84 |  | 
CC[C@@H](C(N)=O)N1CC(c2cccc(N=[N+]=[N-])c2)CC1=O (single isomer, unassigned) [Compound 86] | 94.5 | Particular affinity | Particularly promising activity
CC[C@@H](C(N)=O)N1CC(C)CC1=O (stereo partly drawn) [35] | 73.9 |  | 
CC[C@@H](C(N)=O)N1CC(C)CC1=O (stereo partly drawn) [36] | 56.9 |  | 
CC[C@@H](C(N)=O)N1CC(CI)CC1=O (stereo partly drawn) [Compound 10, (2S)-2-[4-(iodomethyl)-2-oxo-1-pyrrolidinyl]butanamide] | 91.4 | Particular affinity | Particularly promising activity
CC[C@@H](C(N)=O)N1CC(c2ccccc2)CC1=O (stereo partly drawn) [Compound 22] | 89 | Particular affinity | Particularly promising activity
CC[C@@H](C(N)=O)N1CC(c2ccccc2)CC1=O (stereo partly drawn) [Compound 23] | 92.4 | Particular affinity | Particularly promising activity
CC[C@@H](C(N)=O)N1CC(CI)CC1=O (stereo partly drawn) [Compound 27] | 107.7 | Particular affinity | Particularly promising activity
CC[C@@H](C(N)=O)N1CC(CN=[N+]=[N-])CC1=O (stereo partly drawn) [Compound 32, (2S)-2-[4-(azidomethyl)-2-oxo-1-pyrrolidinyl]butanamide] | 84.8 | Particular affinity | Particularly promising activity
CCC(C(N)=O)N1CC(C=C(Br)Br)CC1=O (stereo not drawn) [Compound 33] | 134.8 | Particular affinity | Particularly promising activity
CC[C@@H](C(N)=O)N1CC(Cn2cnnn2)CC1=O (stereo partly drawn) [Compound 40, (2S)-2-[2-oxo-4-(1H-tetrazol-1-ylmethyl)-1-pyrrolidinyl]butanamide] | 82.3 | Particular affinity | Particularly promising activity
C=CC1CC(=O)N(C(CC)C(N)=O)C1 (stereo not drawn) [Compound 41] | 120.5 | Particular affinity | Particularly promising activity
CCC(C(N)=O)N1CC(c2nccs2)CC1=O (stereo not drawn) [Compound 64] | 94.3 | Particular affinity | Particularly promising activity
CC[C@@H](C(N)=O)N1CC(c2cccs2)CC1=O (stereo partly drawn) [Compound 71, (2S)-2-[2-oxo-4-(2-thienyl)-1-pyrrolidinyl]butanamide] | 69.3 | Particular affinity | Particularly promising activity
CC[C@@H](C(N)=O)N1CC(c2ccccc2OC)CC1=O (stereo partly drawn) [Compound 73] | 112 | Particular affinity | 
CC[C@@H](C(N)=O)N1CC(c2cccc(OC)c2)CC1=O (stereo partly drawn) [Compound 75] | 91.3 | Particular affinity | 
CC[C@@H](C(N)=O)N1CC(c2ccc(N=[N+]=[N-])cc2)CC1=O (stereo partly drawn) [Compound 81] | 91.4 | Particular affinity | Particularly promising activity
CC[C@@H](C(N)=O)N1CC(c2ccsc2)CC1=O (stereo partly drawn) [Compound 83] | 93 to 95 | Particular affinity | 

Molecule | melting point [°C] | pKi (affinity for the levetiracetam binding site) [1] | ED50 (dose producing 50% protection against audiogenic seizures) [2]
CC[C@@H](C(N)=O)N1CC(c2cccc(N=[N+]=[N-])c2)CC1=O (stereo partly drawn) [Compound 87] | 98 | Particular affinity | Particularly promising activity
C=C[C@@H]1CC(=O)N([C@@H](CC)C(N)=O)C1 [Compound 92] | 79 | Particular affinity | Particularly promising activity
CCC(C(N)=O)N1CC(CI)CC1=O (stereo not drawn) [Compound 103] | 171.7 | Particular affinity | 
CCC(C(N)=O)N1CC(C=C(F)F)CC1=O (stereo not drawn) [Compound 156] |  | Particular affinity | Particularly promising activity
CCC(C(N)=O)N1CC(CC2CC2)CC1=O (stereo not drawn) [Compound 165] |  | Particular affinity | Particularly promising activity
CC[C@@H](C(N)=O)N1CC(CCc2ccccc2)CC1=O (stereo partly drawn) [Compound 175] | 89.5 | Particular affinity | 
CC[C@@H](C(N)=O)N1CC(CCc2ccccc2)CC1=O (stereo partly drawn) [Compound 176] | 100.2 | Particular affinity | 
CCC(C(N)=O)N1CC(c2cc(C(F)(F)F)cc(C(F)(F)F)c2)CC1=O (stereo not drawn) [Compound 185] | 148.6 | Particular affinity | 
CCC(C(N)=O)N1CC(c2ccco2)CC1=O (stereo not drawn) [Compound 195] |  | Particular affinity | Particularly promising activity
CCC(C(N)=O)N1CC(c2ccco2)CC1=O (stereo not drawn) [Compound 196] |  | Particular affinity | Particularly promising activity
CCCC1CC(=O)N(C(CC)C(N)=O)C1 (stereo not drawn) [Compound 201] |  | Particular affinity | Particularly promising activity
CC[C@@H](C(N)=O)N1CC(C=C(F)F)CC1=O (stereo partly drawn) [Compound 213, (2S)-2-(2-oxo-4-(2,2-difluorovinyl)-1-pyrrolidinyl)butanamide] |  | Particular affinity | Particularly promising activity
CC[C@@H](C(N)=O)N1CC(n2cccc2Br)CC1=O (stereo partly drawn) [Compound 234, (2S)-2-[4-(2-bromo-1H-pyrrol-1-yl)-2-oxo-1-pyrrolidinyl]butanamide] |  | Particular affinity | Particularly promising activity
CCC(C(N)=O)N1C[C@H](CC(C)(F)F)CC1=O (stereo partly drawn) [Compound 265, 2-[(4S)-4-(2,2-difluoropropyl)-2-oxopyrrolidinyl]butanamide] | 110.9 | Particular affinity | 
CCC(C(N)=O)N1CC(C#CBr)CC1=O (stereo not drawn) [Compound 267, 2-(4-bromo-ethynyl-2-oxo-1-pyrrolidinyl)butanamide] | 103.9 | Particular affinity | 
(2S)-2-(2-oxo-4-(2,2-difluorovinyl)-1-pyrrolidinyl)butanamide [Compound 222] |  | Particular affinity | Particularly promising activity
(2S)-2-[4-(iodomethyl)-2-oxo-1-pyrrolidinyl]propanamide [Compound 110] |  | Particular affinity | Particularly promising activity
(2S)-2-[4-(iodomethyl)-2-oxo-pyrrolidin-1-yl]pentanamide [Compound 105] |  | Particular affinity | Particularly promising activity
